Results: PubChem BioAssay (NCI)
Values joined by “and” are separate entries in the source; they are usually repeats but may differ in a detail not shown here. Identical values can stand only once.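 48-hour exposure; five concentrations; linearly interpolated endpoints. The concentration for 50% growth inhibition is given as GI50. At the TGI there is no net growth.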

What was measured:
Test in all cases: NCI anticancer screen, dose series, 48 h
786-0 renal = tested on: 786-0 renal
A549 NSCLC = tested on: A549 NSCLC
HCT-116 colon = tested on: HCT-116 colon
HOP-92 NSCLC = tested on: HOP-92 NSCLC
NCI-H226 lung = tested on: NCI-H226 lung
PC-3 prostate = tested on: PC-3 prostate
SF-268 CNS = tested on: SF-268 CNS
U251 CNS = tested on: U251 CNS
NCI-H522 lung = tested on: NCI-H522 lung
SK-MEL-2 melanoma = tested on: SK-MEL-2 melanoma

SMILES	GI50 (786-0 renal) [nM]	TGI (786-0 renal) [µM]	GI50 (A549 NSCLC)	TGI (A549 NSCLC) [µM]	GI50 (HCT-116 colon) [nM]	TGI (HCT-116 colon) [µM]	GI50 (HOP-92 NSCLC) [µM]	TGI (HOP-92 NSCLC) [µM]	GI50 (NCI-H226 lung) [µM]	TGI (NCI-H226 lung)	GI50 (PC-3 prostate) [µM]	TGI (PC-3 prostate) [µM]	GI50 (SF-268 CNS) [µM]	TGI (SF-268 CNS) [µM]	GI50 (U251 CNS) [µM]	TGI (U251 CNS) [µM]	TGI (NCI-H522 lung) [µM]	TGI (SK-MEL-2 melanoma) [µM]	GI50 (SK-MEL-2 melanoma) [µM]	GI50 (NCI-H522 lung) [µM]
CC(=O)Nc1ccc2c(c1)CN1C(=O)c3ccccc3C1=N2	> 100000	> 100	> 100 µM	> 100	> 100000	> 100	> 100	> 100	> 100	> 100 µM	> 100	> 100	> 100	> 100	> 100	> 100				
C=C(C[N+](C)(C)C)N/N=C/c1oc(-c2ccc(OC)c(OC)c2)c(-c2ccc(OC)c(OC)c2)c1[N+](=O)[O-]		32.9		> 100		32.5		96.2		66.3 µM				38.7		40.2	45.3	31.9		
BrC(Br)([P+](c1ccccc1)(c1ccccc1)c1ccccc1)[P+](c1ccccc1)(c1ccccc1)c1ccccc1		26.9		> 100		46		31.2		73 µM				> 100		47.3	28.7	38.9		
COC(=O)C1=C(C(=O)OC)N(C(C)C)[C@H]2C(C(=O)OC)=C(C(=O)OC)N(C(C)C)[C@@H]12		> 100		> 100		> 100		> 100		> 100 µM				> 100		> 100	> 100	> 100		
O=c1ncccn1C1OC(CO)C(O)C1F (stereo unspecified)		> 100		> 100	> 100000	> 100		> 100		> 100 µM				> 100		> 100	> 100	> 100		
COc1cc2c3c(c1OC)/C(=N/OS(=O)(=O)c1ccc(C)cc1)CC3N(S(=O)(=O)c1ccc(C)cc1)CC2 (stereo unspecified)		> 100		> 100		> 100		> 100		> 100 µM				> 100		> 100	> 100			
O=c1c2ccccc2c(=O)c2c1sc1c(=O)c3ccc(O)cc3c(=O)c12	1800	4.44	0.222 µM	0.497	651	3.9							1.04	7.62	1.01	2.39		3.88	1.47	
N#CC1=C(N)NC(=S)C(C#N)C12Nc1ccccc1S2 (stereo unspecified)	25400	68.9	23.1 µM	53.1	18500	41.7	60.8	> 100			41	> 100	14.8	42.9	18.3	40.2	35.6	58.1	29.3	16.2
COc1ccccc1-c1nccc(COc2ccccc2C[C@@H](Oc2ncnc3sc(-c4ccc(F)cc4)c(-c4ccc(OCCN5CCN(C)CC5)c(Cl)c4C)c23)C(=O)O)n1	2010	4.2	10 µM	31.7	2430	6.55	1.41	3.27	3	10.9 µM	1.96	4.81	3.69	17.5	1.88	4.15		0.0367	< 0.0114	
C1=CC=C2NCCSCCNC3=CC=CC=CC3=NCCSCCN=C2C=C1		> 100		> 100		> 100				> 100 µM				> 100		> 100	> 100	> 100		
C/C(N=NC(=S)N1CCCCCC1)=C1\C=CC=CN1O		> 49.9		> 92.3		> 100		72.4		> 90.3 µM				> 100		> 100	7.1	18.8		
Nn1nnc2ccccc21		> 100		> 100		> 100		> 100		> 100 µM		> 100		> 100		> 100				
CCOC(=O)c1cc(C(=O)O)c(=O)n2c1[nH]c1ccccc12		> 100		> 100		> 100								> 100		> 100	> 100	> 100		
CCCC/C=C1\CCC(CN2CCCC2)C1=O (stereo unspecified)		3.62		40.3		27.3		31.1		31.8 µM				29.9		19.6		29.8		
O=C1Nc2ccc(Br)cc2C1=Nc1ccc(Cl)cc1		> 100		> 100		62.9		> 100		58.8 µM		> 100		55.8		88.8	24.6			
Cc1ccc(N2C(=O)/C(=C3\Sc4c(nc(C)n(C)c4=O)N3c3ccccc3)SC2=S)cc1		> 100		> 100		> 100		> 100		64.6 µM				> 100		> 100	> 100	> 100		
CCC1(Cl)C(=O)NC(=O)N(C2CC(O)C(CO)O2)C1N=[N+]=[N-] (stereo unspecified)		> 100		> 100				> 100						> 100		> 100	> 100	> 100		
CNc1ccc(N=Nc2cccc3ncccc23)cc1	> 88400	> 100	50.9 µM	> 100			24.3	> 100	> 100	> 100 µM	15.3	> 100	39.3	> 100	31.5	> 100	> 100	> 100	> 100	43.7
COc1cc2c(c(OC)c1OC)-c1ccc(SC)c(=O)cc1[C@@H](NC(=O)c1ccc(F)cc1)CC2	< 10	11.5	0.0489 µM and < 0.01 µM	> 100	< 10	< 0.01		0.0958	< 0.01	0.0744 µM and < 0.01 µM			< 0.01	16.8	< 0.01	0.0113	< 0.01			
